# Columns and labels:
# [1] = tested on: HEY/NIH microtissues (HEY-GFP ovarian cancer cells + NIH3T3 fibroblasts); assay type: cell-based, human; details: read-out: IC50 ATP; HEY/NIH spheroids, ATP content at treatment day 7
# [2] = tested on: SKOV/NIH microtissues (SKOV-3 ovarian cancer cells + NIH3T3 fibroblasts); assay type: cell-based, human; details: read-out: IC50 ATP; SKOV/NIH spheroids, ATP content at treatment day 7
# [3] = tested on: PANC/NIH microtissues (PANC-1 pancreatic cancer cells + NIH3T3 fibroblasts); assay type: cell-based, human; details: read-out: IC50 ATP; PANC/NIH spheroids, ATP content at treatment day 7
# [4] = tested on: NIH3T3 fibroblasts within HEY/NIH microtissues; details: day 3
# HEY/NIH3T3 microtissues = test: Microtissue size over time, HEY/NIH microtissues; assay type: cell-based, human; details: HEY/NIH3T3, % maximal response at 20 μM
# [5] = tested on: NIH3T3 fibroblasts within SKOV/NIH microtissues
# [6] = tested on: NIH3T3 fibroblasts within PANC/NIH microtissues; assay type: cell-based, mouse; details: PANC1/NIH, day 3 (acute toxicity)
SMILES,IC50 [1] [nM],IC50 [2] [nM],IC50 [3] [nM],other results
C=CC(=O)Nc1cc2c(Nc3ccc(F)c(Cl)c3)ncnc2cc1C#CC(C)(C)N1CCN(C)CC1 [AV-412],1290,80,2440,
COC(=O)[C@]12CCC(C)(C)C[C@H]1[C@H]1C(=O)C=C3[C@@]4(C)C=C(C#N)C(=O)C(C)(C)[C@@H]4CC[C@@]3(C)[C@]1(C)CC2 [Bardoxolone methyl],,,1340,
CC(C)C[C@H](NC(=O)[C@H](CCc1ccccc1)NC(=O)CN1CCOCC1)C(=O)N[C@@H](Cc1ccccc1)C(=O)N[C@@H](CC(C)C)C(=O)[C@@]1(C)CO1 [Carfilzomib],,,,"therapeutic window, ratio of adverse to therapeutic effect [4]: 578 fold"
O=C1C(Cl)=C(NCCN2CCOCC2)C(=O)c2ncccc21 [DA-3003-1],7360,,,
Cc1nc(Nc2ncc(C(=O)Nc3c(C)cccc3Cl)s2)cc(N2CCN(CCO)CC2)n1 [Dasatinib],,,,effect on tumor size early in the treatment (HEY/NIH3T3 microtissues): reduce tumor size
CNC(=O)[C@H](Cc1c[nH]c2ccccc12)NC(=O)[C@@H](CC(=O)NO)CC(C)C [GM-6001],,3860,9610,
CC1=C(C(=O)Nc2cc3cn[nH]c3cc2F)C(c2ccc(Cl)cc2F)N=C(c2ccnc(Cl)c2)N1 (centres unmarked) [GSK-25],6100,4830,9380,
CN(C)CCCN=c1c2ccccc2n(C)c2[nH]c(=O)n(C)c(=O)c12 [HLI-373989],3760,,,
CSc1cccc(Nc2ncc3cc(-c4c(Cl)cccc4Cl)c(=O)n(C)c3n2)c1 [PD-173955],479,,,
Cc1ccc(/C=N/NC(=O)c2ccccc2Oc2ccccc2)o1 [PNU-74654],,2840,,
C/C=C1\NC(=O)[C@H]2CSSCC/C=C/[C@H](CC(=O)N[C@H](C(C)C)C(=O)N2)OC(=O)[C@H](C(C)C)NC1=O [Romidepsin],,,,viability of the stromal cells [5]: significantly lowered the viability of the stromal cells
O=C(O)C1CCCN(CCC=C(c2ccccc2)c2ccccc2)C1 (centres unmarked) [SK&F-89976A],15300,,,
Cc1ccc(-c2ncn(-c3ccc(Nc4nccc(-c5cccc(N6CCOCC6)c5)n4)cc3)n2)cn1 [SR-3306],58,13,22,
Cn1c(=O)c(F)c(Nc2ccc(I)cc2F)c2c(=O)n(C[C@@H](O)CO)cnc21 [TAK-733],,,,effect on tumor size early in the treatment (HEY/NIH3T3 microtissues): reduce tumor size
Nc1ccc(-c2ccc3ncc4ccc(=O)n(-c5cccc(C(F)(F)F)c5)c4c3c2)cn1 [Torin-2],27,2,1,"therapeutic window, ratio of adverse to therapeutic effect [6]: 5,524 fold"
c1cncc(CN2CCC(n3ncc4c(N5CCOCC5)nc(-c5ccc6[nH]ccc6c5)nc43)CC2)c1 [WAY-600],1680,507,7380,effect on tumor size early in the treatment (HEY/NIH3T3 microtissues): reduce tumor size

# Source: PMC11271247 (SLAS discovery : advancing life sciences R & D, 2019)
